Results on 2 compounds are retold here after US20260115250A1, “METHODS OF TREATING AGE-RELATED MACULAR DEGENERATION” (Character Biosciences, Inc., priority 2022, published 2026).

Data set [1] concerns the target T1, LDLR (Homo sapiens, UniProt P01130). Nature of the data set: LDLR binding (SPR), high surfactant preparation. To be noted: high surfactant preparation (HBS-P+), 1:1 binding model; read-out: binding KD to LDLR. The essentials:
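Surface plasmon resonance with recombinant LDLR amine-coupled to a CM5 chip at 1000 RU. Peptides, 5 μM top concentration then 1:3 dilutions (5 levels) in HBS-P+ with 1 mM CaCl2, injected 120 seconds at 30 μL/sec; multi-cycle kinetics fitted to a 1:1 binding model.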
Target sequence in this assay (P01130 22-860): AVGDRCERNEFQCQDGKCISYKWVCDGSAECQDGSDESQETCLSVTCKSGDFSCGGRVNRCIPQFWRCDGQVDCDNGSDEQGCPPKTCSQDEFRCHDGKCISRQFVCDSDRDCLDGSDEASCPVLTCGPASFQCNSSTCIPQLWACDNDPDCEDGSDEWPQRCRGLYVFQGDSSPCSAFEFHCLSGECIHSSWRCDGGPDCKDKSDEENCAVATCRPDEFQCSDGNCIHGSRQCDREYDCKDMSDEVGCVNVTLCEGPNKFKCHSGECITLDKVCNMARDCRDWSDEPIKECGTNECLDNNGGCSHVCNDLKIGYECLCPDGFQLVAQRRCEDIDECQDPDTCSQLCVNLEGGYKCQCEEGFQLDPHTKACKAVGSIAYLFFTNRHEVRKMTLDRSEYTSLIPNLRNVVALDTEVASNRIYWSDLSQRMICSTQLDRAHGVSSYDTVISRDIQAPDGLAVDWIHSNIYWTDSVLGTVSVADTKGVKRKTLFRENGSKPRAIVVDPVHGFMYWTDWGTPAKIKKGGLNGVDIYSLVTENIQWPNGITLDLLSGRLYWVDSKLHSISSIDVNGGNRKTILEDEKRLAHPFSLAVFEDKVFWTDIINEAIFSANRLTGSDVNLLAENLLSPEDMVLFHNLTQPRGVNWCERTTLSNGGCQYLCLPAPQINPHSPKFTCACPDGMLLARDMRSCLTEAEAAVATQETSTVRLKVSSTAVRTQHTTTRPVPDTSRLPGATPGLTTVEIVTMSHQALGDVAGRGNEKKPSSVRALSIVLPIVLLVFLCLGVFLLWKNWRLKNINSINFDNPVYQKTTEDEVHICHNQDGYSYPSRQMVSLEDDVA

In the next data set the test system is ARPE-19 cells. Nature of the data set: ARPE-19 cell viability assay (Cell Titer Glo). As to conditions: 100 μM peptide, 1.5 hours. Type of data set: cell-based, human. The protocol:
ARPE-19 cells were seeded in 96-well plates at 25,000 cells/well and allowed to adhere to the plate surface for at least 24 hours. Peptides were diluted in serum-free DMEM: F12 to a final concentration of 100 μM. Cells were washed, then incubated in 100 μM peptide solution for 1.5 hours at 37° C. Plates were brought to room temperature for 30 minutes, then washed with DPBS. Cells were incubated in a 1:1 mixture of DPBS and Cell Titer Glo 2.0 Reagent for 10 minutes at room temperature, then cell luminescence was read on a plate reader. Viability values were background corrected, and 0% viability is determined by luminescence values of cells treated with 1% Triton-X-100. Data are presented as mean+SD over two separate runs.
A general note: In ATP-based viability assays light output follows the ATP content of the culture.

The target in data set [2] is T1, LDLR. Put plainly: KD (µM). The source says:
Table printed on a drawing sheet, FIG. 23
Title: Buffer: HBS + 0.05% P20
Head of the field: KD (µM)
The patent's description of the figure: FIG. 23 is a table showing the binding kinetics results of LDLR binding assays (SPR), high surfactant preparation as described herein for select peptides shown in FIG. 1A-1I.
First copying reader's note: Right of three side-by-side panels of FIG. 23; the KD cells hold value ± error together.
Where the first naming reader finds the target: description_of_the_figure: FIG. 23 is a table showing the binding kinetics results of LDLR binding assays (SPR), high surfactant preparation
Target sequence in this assay (P01130 22-860 limits assumed): as the sequence (P01130 22-860) above

The next data set has as its target T2, ABCA1 (Mus musculus, UniProt P41233).
T2 construct: endogenous in cells; host or cells: J774 murine macrophage cells, ABCA1 induced with 8-Br-cAMP and AcLDL
Nature of the data set: membrane ABCA1 stability testing in J774 cells. The class given is cell-based, murine. As to conditions: 4 hours. The method, then:
FIGS. 33A-33C illustrate the results of membrane ABCA1 stability testing in J774 Cells. J774 murine macrophage cells were seeded at 50,000 cells per well on 12-well plates and were allowed to grow to confluence. A vehicle solution of 0.1% BSA in serum-free DMEM was prepared for control wells. An ABCA1 induction solution of 0.1% BSA with 1 mM 8-Br-CAMP and 50 μg/mL AcLDL was prepared in serum-free DMEM and incubated on cells overnight at 37° C. to increase ABCA1 protein levels on the membrane. A solution of 10 μM peptide was prepared in serum-free DMEM and serially diluted 1:10 for 4 concentrations. ApoAI was prepared at a concentration of 300 nM. Peptides or ApoA1 were added to cells for 4 hours at 37° C. before isolating membrane protein and measuring membrane ABCA1 levels by western blot. Blots were quantified in ImageJ and the signal was normalized to membrane Na+/K+ pump levels. Signals were further normalized to the 18-hour cAMP treated group to determine percent (%) Membrane ABCA1 remaining.

Peptide text beside a SMILES is read from it. Some results are limits rather than exact numbers.

T2 sequence (P41233 whole entry): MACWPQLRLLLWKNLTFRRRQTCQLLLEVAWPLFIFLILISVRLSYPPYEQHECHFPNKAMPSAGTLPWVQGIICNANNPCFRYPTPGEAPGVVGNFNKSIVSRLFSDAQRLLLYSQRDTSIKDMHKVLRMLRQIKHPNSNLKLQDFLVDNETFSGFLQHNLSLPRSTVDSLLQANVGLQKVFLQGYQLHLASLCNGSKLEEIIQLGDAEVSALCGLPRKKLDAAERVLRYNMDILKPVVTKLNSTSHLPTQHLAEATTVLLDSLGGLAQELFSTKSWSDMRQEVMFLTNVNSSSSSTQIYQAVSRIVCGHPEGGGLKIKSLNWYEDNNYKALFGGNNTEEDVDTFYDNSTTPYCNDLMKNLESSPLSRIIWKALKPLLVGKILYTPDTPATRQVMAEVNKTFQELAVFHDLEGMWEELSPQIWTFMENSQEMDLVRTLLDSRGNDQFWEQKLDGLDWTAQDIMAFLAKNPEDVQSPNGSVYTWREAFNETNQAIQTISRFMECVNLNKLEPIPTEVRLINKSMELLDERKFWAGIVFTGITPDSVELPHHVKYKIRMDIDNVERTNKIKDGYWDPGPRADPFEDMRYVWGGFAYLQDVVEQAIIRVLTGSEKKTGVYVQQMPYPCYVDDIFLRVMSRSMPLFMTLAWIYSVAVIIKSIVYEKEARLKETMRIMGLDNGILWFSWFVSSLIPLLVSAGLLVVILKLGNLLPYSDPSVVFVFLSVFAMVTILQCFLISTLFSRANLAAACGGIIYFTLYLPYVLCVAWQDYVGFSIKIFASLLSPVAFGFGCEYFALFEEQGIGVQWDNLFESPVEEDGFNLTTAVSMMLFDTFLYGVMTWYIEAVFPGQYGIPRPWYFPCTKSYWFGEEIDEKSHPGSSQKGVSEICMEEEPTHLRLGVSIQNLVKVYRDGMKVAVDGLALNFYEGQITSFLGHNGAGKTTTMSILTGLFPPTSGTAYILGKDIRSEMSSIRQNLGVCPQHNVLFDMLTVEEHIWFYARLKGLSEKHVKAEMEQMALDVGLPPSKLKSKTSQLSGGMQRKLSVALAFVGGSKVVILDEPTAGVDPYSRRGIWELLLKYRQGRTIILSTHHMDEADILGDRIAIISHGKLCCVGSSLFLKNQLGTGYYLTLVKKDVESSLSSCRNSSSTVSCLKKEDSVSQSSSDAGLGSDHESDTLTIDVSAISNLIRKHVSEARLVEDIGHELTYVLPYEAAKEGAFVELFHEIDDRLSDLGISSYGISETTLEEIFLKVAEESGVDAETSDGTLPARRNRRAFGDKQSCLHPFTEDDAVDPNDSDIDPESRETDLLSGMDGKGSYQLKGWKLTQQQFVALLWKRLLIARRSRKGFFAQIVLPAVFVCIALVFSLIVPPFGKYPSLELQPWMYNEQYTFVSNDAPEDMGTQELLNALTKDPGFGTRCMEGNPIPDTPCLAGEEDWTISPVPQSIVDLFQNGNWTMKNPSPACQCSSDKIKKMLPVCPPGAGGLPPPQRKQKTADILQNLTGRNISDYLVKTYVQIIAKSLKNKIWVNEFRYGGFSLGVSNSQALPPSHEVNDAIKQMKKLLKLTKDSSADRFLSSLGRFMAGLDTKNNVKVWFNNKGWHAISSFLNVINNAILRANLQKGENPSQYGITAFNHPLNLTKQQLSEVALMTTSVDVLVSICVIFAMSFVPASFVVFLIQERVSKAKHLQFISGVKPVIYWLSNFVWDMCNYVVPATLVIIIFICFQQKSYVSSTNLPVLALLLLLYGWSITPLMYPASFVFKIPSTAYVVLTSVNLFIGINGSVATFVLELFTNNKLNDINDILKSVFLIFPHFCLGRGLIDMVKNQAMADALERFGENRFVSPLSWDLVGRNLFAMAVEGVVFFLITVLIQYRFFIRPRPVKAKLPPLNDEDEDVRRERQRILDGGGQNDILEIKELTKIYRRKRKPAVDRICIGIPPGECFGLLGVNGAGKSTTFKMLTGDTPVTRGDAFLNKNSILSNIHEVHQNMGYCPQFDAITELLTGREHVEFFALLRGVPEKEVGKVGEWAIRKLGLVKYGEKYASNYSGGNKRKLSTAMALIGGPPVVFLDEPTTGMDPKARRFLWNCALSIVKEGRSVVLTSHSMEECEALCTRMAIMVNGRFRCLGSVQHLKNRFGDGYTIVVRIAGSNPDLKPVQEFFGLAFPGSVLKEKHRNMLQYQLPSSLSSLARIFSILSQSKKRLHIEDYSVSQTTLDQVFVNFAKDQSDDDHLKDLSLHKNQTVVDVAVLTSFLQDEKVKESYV

Turning to `CC(C)C[C@H](NC(=O)[C@H](CC(=O)O)NC(=O)[C@H](CCCCN)NC(=O)CNC(=O)[C@H](Cc1ccc(O)cc1)NC(=O)[C@H](CC(=O)O)NC(=O)[C@@H](NC(=O)[C@@H](NC(=O)[C@@H](NC(=O)[C@H](CCC(N)=O)NC(=O)[C@H](Cc1ccccc1)NC(=O)[C@H](Cc1ccc(O)cc1)NC(=O)[C@H](CCC(N)=O)NC(=O)[C@H](CO)NC(=O)[C@@H](NC(=O)[C@H](CC(C)C)NC(=O)[C@H](CO)NC(=O)[C@H](CCCNC(=N)N)NC(=O)[C@H](CC(C)C)NC(=O)[C@H](CC(C)C)NC(=O)[C@H](CCCNC(=N)N)NC(=O)[C@H](CCCCN)NC(=O)[C@H](CCCNC(=N)N)NC(=O)[C@H](CC(C)C)NC(=O)[C@H](CCCCN)NC(=O)[C@H](CCCNC(=N)N)NC(=O)[C@H](CC(C)C)NC(=O)[C@@H](N)Cc1c[nH]cn1)C(C)C)[C@@H](C)O)C(C)C)[C@@H](C)O)C(=O)O` [T-109] (H-HLRKLRKRLLRSLVSQYFQTVTDYGKDL-OH), the dissociation constant (Kd) (commonly the constant that tells how readily two partners part at equilibrium) at LDLR [1] was < 10000 nM; at LDLR [2], 1200 ± 90 nM. For the same compound, the ARPE-19 cell viability entry with ARPE-19 cells was “substantial change in viability”.
On to “ApoA1: positive control protein ApoA1 (apolipoprotein A1)”, for which, in the data set with ABCA1, the “membrane ABCA1 levels after washout of 8-Br-cAMP” value was “preserved membrane ABCA1 levels”.
